Data set [1] deals with human colon cancer HCT-116. The data set can be described thus: Subcutaneously transplanted tumors in nude mice. Type of data set: in vivo, BALB/cA nude mice. More on the design: key to RTV (mean ± SD): RTV = Vt/V0, tumor volume at time t over volume at d0. The settings on record: for 1-T/C tumor inhibition rate / TV (mean ± SD) d0 / Weight d0 / RTV (mean ± SD) / TV (mean ± SD) d21: Table 2.1, 20 mg/kg q3d × 3w iv; for 1-T/C tumor inhibition rate: after three weeks; for RTV (mean ± SD) / TV (mean ± SD) d21: d21; for Tumor Volume TV (mean ± SD) d 0 / Tumor Volume TV (mean ± SD) d 3 / Tumor Volume TV (mean ± SD) d 7 / Tumor Volume TV (mean ± SD) d 10 / Tumor Volume TV (mean ± SD) d 14 / Tumor Volume TV (mean ± SD) d 17: Table 2.2; for Tumor Volume TV (mean ± SD) d 0 / Tumor Volume TV (mean ± SD) d 3 / Tumor Volume TV (mean ± SD) d 7 / Tumor Volume TV (mean ± SD) d 10 / Tumor Volume TV (mean ± SD) d 14 / Tumor Volume TV (mean ± SD) d 17 / Weight (mean ± SD) d 0 / Weight (mean ± SD) d 3 / Weight (mean ± SD) d 7 / Weight (mean ± SD) d 10 / Weight (mean ± SD) d 14 / Weight (mean ± SD) d 17 / Weight (mean ± SD) d 21: 20 mg/kg; for Weight (mean ± SD) d 0 / Weight (mean ± SD) d 3 / Weight (mean ± SD) d 7 / Weight (mean ± SD) d 10 / Weight (mean ± SD) d 14 / Weight (mean ± SD) d 17 / Weight (mean ± SD) d 21: Table 2.3. On the procedure: The solvents are isopropanol and anhydrous ethanol (mixed in the volume ratio of 1:1). The test sample is dissolved with solvents and physiological saline in the ratio of 1:1 for use, and the above solvents and physiological saline are dissolved in the ratio of 1:1 as a negative control.
The number of mice in each group: 12 mice in the negative control group, and 6 mice in the administration group.
The cell strains are inoculated to the right axilla subcutaneous layer of the nude mice, with 5×10^6 per mouse. After formed, the transplanted tumors are passed down two generations in the nude mice and then used.
Tumor tissues in the vigorous growth period are cut into about 1.5 mm^3, and inoculated to the right axilla subcutaneous layer of the nude mice under aseptic conditions. For the subcutaneously transplanted tumors of the nude mice, the diameter of the transplanted tumors is measured by a vernier caliper. The mice are randomly grouped after the tumors grow to 100-200 mm^3. […] The diameter of the transplanted tumors is measured twice per week in the whole experimental process, and meanwhile the weight of the mice is weighed. The calculation formula of tumor volume (TV) is TV=½×a×b^2, where a and b represent length and width, respectively.
The relative tumor volume (RTV) is calculated according to the measured results, with the following calculation formula: RTV=Vt/V0, where V0 is the tumor volume obtained by measurement during administration in different cages (i.e., d0), Vt is the tumor volume obtained by measurement at each time. […] (Wc−WT)Wc×100%, where Wc is the tumor weight of the control group, and WT is the tumor weight of the treatment group.

Another data set has as its target T1, HDAC7 (Homo sapiens, UniProt Q8WUI4).
T1 sequence (Q8WUI4 1-952): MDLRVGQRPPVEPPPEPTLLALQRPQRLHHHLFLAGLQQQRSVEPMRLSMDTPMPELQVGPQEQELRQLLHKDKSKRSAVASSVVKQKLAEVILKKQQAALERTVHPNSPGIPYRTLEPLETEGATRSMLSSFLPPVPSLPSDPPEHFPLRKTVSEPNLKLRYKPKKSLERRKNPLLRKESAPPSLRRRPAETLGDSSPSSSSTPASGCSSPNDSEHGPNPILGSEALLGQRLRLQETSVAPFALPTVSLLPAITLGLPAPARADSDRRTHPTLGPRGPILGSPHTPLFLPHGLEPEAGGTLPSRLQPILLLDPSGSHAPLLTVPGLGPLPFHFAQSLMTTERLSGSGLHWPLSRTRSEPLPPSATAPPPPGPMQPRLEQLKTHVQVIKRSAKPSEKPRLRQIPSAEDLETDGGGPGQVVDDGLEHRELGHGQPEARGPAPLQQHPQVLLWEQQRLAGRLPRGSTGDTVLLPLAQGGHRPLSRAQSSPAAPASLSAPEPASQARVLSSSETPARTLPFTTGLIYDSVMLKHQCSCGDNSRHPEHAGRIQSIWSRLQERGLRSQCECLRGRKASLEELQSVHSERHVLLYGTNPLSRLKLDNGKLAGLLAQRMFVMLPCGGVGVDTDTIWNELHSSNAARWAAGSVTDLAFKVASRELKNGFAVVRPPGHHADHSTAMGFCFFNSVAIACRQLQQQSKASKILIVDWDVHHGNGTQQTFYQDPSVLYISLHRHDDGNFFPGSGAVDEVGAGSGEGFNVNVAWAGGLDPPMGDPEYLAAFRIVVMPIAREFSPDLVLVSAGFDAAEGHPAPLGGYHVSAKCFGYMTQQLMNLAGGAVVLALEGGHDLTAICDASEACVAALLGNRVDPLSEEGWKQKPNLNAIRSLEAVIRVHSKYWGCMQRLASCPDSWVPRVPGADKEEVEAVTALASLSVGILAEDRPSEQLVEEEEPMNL
The data set can be described thus: Measurement of biochemical activities of HDAC (fluorescently-labeled acetylated lysine substrate). The essentials:
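For both HDAC isoforms, fluorescent acetyl-lysine substrate ([…] in reaction) incubated with enzyme and compounds for 30 min at 37; developer then added for 15 min at room temperature. Fluorescence read at excitation 360 nm, emission 460 nm.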

In the case of `C/C=C1\NC(=O)c2csc(n2)CNC(=O)C[C@@H](/C=C/CCSC(=O)CCCCCCC)OC(=O)[C@H](Cc2ccccc2)NC1=O` [Compound 1-7], in data set [1], the “1-T/C tumor inhibition rate” value was found to be 72.24%, the “TV (mean ± SD) d0” value is listed as 115 ± 20 mm^3, the “Weight d0” value was 16.6 g and the “RTV (mean ± SD)” value is reported as 2.89 ± 1.62. Further, in data set [1], the “TV (mean ± SD) d21” value is listed as 332 ± 186 mm^3, the “Tumor Volume TV (mean ± SD) d 0” value amounted to 116 ± 21 mm^3, the “Tumor Volume TV (mean ± SD) d 3” value amounted to 131 ± 11 mm^3 and the “Tumor Volume TV (mean ± SD) d 7” value came out at 158 ± 26 mm^3. In data set [1], the “Tumor Volume TV (mean ± SD) d 10” value came out at 199 ± 68 mm^3, the “Tumor Volume TV (mean ± SD) d 14” value is given as 245 ± 107 mm^3, the “Tumor Volume TV (mean ± SD) d 17” value is given as 275 ± 132 mm^3 and the “Weight (mean ± SD) d 0” value was determined as 16.6 ± 1.1 g. In data set [1], the “Weight (mean ± SD) d 3” value was 15.9 ± 0.7 g, the “Weight (mean ± SD) d 7” value was 15.1 ± 0.9 g, the “Weight (mean ± SD) d 10” value worked out at 14.5 ± 1.2 g and the “Weight (mean ± SD) d 14” value worked out at 14.0 ± 1.0 g. Besides, in data set [1], the “Weight (mean ± SD) d 17” value came to 13.5 ± 1.0 g and the “Weight (mean ± SD) d 21” value is 13.2 ± 1.0 g. In addition, on HDAC7, the “IC50 HDAC7” value is on record as “no activity”.

With `C/C=C1\NC(=O)c2csc(n2)CNC(=O)C[C@@H](/C=C/CCSC(=O)CCCCCCC)OC(=O)[C@H](Cc2ccc(O)cc2)NC1=O` [Compound 1-8], in data set [1], the “1-T/C tumor inhibition rate” value was found to be 69.49%, the “TV (mean ± SD) d0” value came to 116 ± 22 mm^3, the “Weight d0” value is given as 16.1 g and the “RTV (mean ± SD)” value was found to be 3.17 ± 2.08. Moreover, in data set [1], the “TV (mean ± SD) d21” value is 368 ± 241 mm^3, the “Tumor Volume TV (mean ± SD) d 0” value amounted to 118 ± 22 mm^3, the “Tumor Volume TV (mean ± SD) d 3” value was found to be 139 ± 15 mm^3 and the “Tumor Volume TV (mean ± SD) d 7” value was determined as 165 ± 28 mm^3. In data set [1], the “Tumor Volume TV (mean ± SD) d 10” value amounted to 203 ± 69 mm^3, the “Tumor Volume TV (mean ± SD) d 14” value worked out at 265 ± 127 mm^3, the “Tumor Volume TV (mean ± SD) d 17” value is reported as 305 ± 142 mm^3 and the “Weight (mean ± SD) d 0” value was 16.3 ± 1.0 g. In addition, in data set [1], the “Weight (mean ± SD) d 3” value was determined as 15.8 ± 1.1 g, the “Weight (mean ± SD) d 7” value is given as 15.1 ± 0.9 g, the “Weight (mean ± SD) d 10” value is 14.5 ± 1.2 g and the “Weight (mean ± SD) d 14” value was determined as 14.0 ± 1.0 g. Besides, in data set [1], the “Weight (mean ± SD) d 17” value amounted to 13.5 ± 0.9 g and the “Weight (mean ± SD) d 21” value came to 12.9 ± 0.9 g. Moreover, the “IC50 HDAC7” value against HDAC7 is given as “no activity”.

Values taken from US8933195B2, “Histone deacetylase inhibitors and synthetic method thereof and use thereof in manufacture of medicaments” (Nanjing Yoko Biomedical R & D Ltd., priority 2011, dated 2015).
